Marks after values point to notes of the source that are not given here.
Assays:
human MCHR1 = molecular target: human MCHR1; parameters: method as in PMID 24106662; conditions: CHO cells expressing the human MCHR1; cited from earlier work
[1] = Biodistribution 45 min after IV injection; assay type: in vivo, Sprague-Dawley rats; conditions: rats, 45 min after injection
Method: (§1) Conscious and freely moving rats of the baseline and blocking groups were always examined simultaneously: rats of the baseline group (n = 3) received vehicle (400 μL), and rats of the blocking group (n = 3) received SNAP-7941 (15 mg/kg; freshly dissolved in 400 μL) via the jugular vein 30 min prior to tracer application. Via the jugular vein, 51.33 ± 26.2 MBq of [^18F]FE@SNAP (specific activity 12.3–43.1 GBq/μmol; radiochemical purity ≥95 %; 30–100 μL) was then administered to all rats. After 45 min, rats were sacrificed by IV ketamine injection and decapitated, and the brains were removed and immediately quick frozen in isopentane (−45 °C) for ex vivo autoradiography. Other organs including the eyes, tongue, muscle, epidermal white adipose tissue (WATep), heart, lung, stomach, pancreas, liver, duodenum, colon, spleen, kidneys, adrenals, testis, bladder and bone as well as blood and urine were removed, weighed and measured in a gamma counter (2480 WIZARD^2, PerkinElmer). Radioactivity concentrations were normalized to dose and weight and expressed as percent injected dose per gram (%ID/g). To determine significant differences, a two-tailed t test with […] was performed using the statistics add-on in Microsoft Excel® 2013. A value of P < 0.05 was considered as significant.

MCHR1 [2] = molecular target: T1, MCHR1 (Rattus norvegicus, UniProt P97639); test: Ex vivo brain autoradiography after IV injection into the jugular vein of awake rats; assay type: in vivo, Sprague-Dawley rats; parameters: from tissue; host or cells: rat brain (hypothalamus, ventricular system) and peripheral organs after in vivo injection; conditions: for Ratio Hypothalamus/non-target / Ratio Ventricle/non-target: ratio of ROIs (DLU/mm^2), 45 min after injection, n = 3
Method: as §1
Whole rat brains (n = 6) were cut in a cryo-microtome (Microm HM 560, Thermo Scientific) into 50-μm-thick slices and thaw-mounted onto superfrost slides (Menzel-Gläser SUPERFROST® PLUS, Thermo Scientific). Samples were placed on Phosphor Imager plates (Multisensitive Phosphor Screens Long Type MS, PPN 7001724, PerkinElmer) for an exposure period of 18 h and then analysed with a Cyclone Phosphor Imager (Cyclone Plus Storage Phosphor System, PerkinElmer). Data analysis was performed with OptiQuant® data processing software Version 5.0. Due to high-MCHR1 appearance, special emphasis was laid on the hypothalamus and the ventricular system. […] To facilitate comparison, manually defined template ROIs fitting to all slices (30 slices/brain; bregma −1.0 to −2.5 mm) were applied. […] In detail, ratios of hypothalamus/non-target and ventricle/non-target were calculated. Significant differences were calculated as described before.
Fig. 2 Scheme of the ROIs for calculation of ratios. 1 (yellow): ventricular system; 2 (green): hypothalamic area; 3 (pink): non-target region; and 4 (orange): whole brain. It is noteworthy that ROIs 1 and 2 include the target areas as well as some background areas, due to varying target size throughout the different brain levels (bregma)

MCHR2 = molecular target: MCHR2; parameters: method as in PMID 24106662; conditions: second MCH receptor; cited from earlier work
MCHR1 [3] = molecular target: T1, MCHR1; test: Preliminary small-animal PET/MR imaging; assay type: in vivo; parameters: from tissue; host or cells: living rat (in vivo PET imaging); conditions: healthy anaesthetized rat, baseline conditions, tail vein bolus
Method: An anaesthetized rat (with 1.5–2.5 % isoflurane) was immobilized in a multimodal animal carrier unit (MACU; medres®—medical research GmbH, Cologne, Germany) and maintained at a body temperature of 37 °C throughout the whole experiment. [^18F]FE@SNAP (47.64 ± 1.23 MBq) was injected as a bolus via the lateral tail vein, and dynamic PET imaging (Siemens Inveon preclinical μPET/SPECT/CT system) was performed over 60 min. Immediately afterwards, T1-weighted high-resolution axial, coronary and sagittal brain MRI scans were performed using a Bruker BioSpec 94/30 USR small-animal MR system (Bruker BioSpin GmbH, Karlsruhe, Germany).

[4] = Blood metabolite analysis by radio-TLC; assay type: in vivo, Sprague-Dawley rats; conditions: 45 min after tracer application, baseline group, n = 3, plasma
Method: For analysis of potential circulating metabolites, blood samples from the baseline group were collected into heparinized tubes and immediately stored on ice before processing. The blood was centrifuged (Hettich Rotanta/TRC; 3400×g, 4 min) to separate cellular components. Sample cleanup was performed by vortexing plasma with the equivalent amount of acetonitrile and by subsequent centrifugation (Hettich Universal 30RF; 23,000×g, 3 min) to remove precipitated proteins. The obtained supernatant was applied to radio-thin-layer chromatography (radio-TLC silica gel plates, mobile phase acetonitrile/water 70/30 v/v, application volume 2 μL on origin) and analysed via a Canberra-Packard Instant Imager.

[5] = blocking with SNAP-7941 15 mg/kg 30 min prior

T1 sequence (P97639 whole entry): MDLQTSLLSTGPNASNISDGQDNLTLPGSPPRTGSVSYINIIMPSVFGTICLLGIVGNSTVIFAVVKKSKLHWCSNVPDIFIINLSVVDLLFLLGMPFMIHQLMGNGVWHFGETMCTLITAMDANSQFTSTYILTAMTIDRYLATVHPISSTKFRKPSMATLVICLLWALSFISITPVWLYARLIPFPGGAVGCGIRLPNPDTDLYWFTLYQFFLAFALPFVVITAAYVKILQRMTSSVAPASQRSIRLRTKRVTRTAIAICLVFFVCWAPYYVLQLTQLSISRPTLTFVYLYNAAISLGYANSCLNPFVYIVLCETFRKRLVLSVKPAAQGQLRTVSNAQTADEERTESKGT

COCC1=C(C(=O)OCC[18F])C(c2ccc(F)c(F)c2)N(C(=O)NCCCN2CCC(c3cccc(NC(C)=O)c3)CC2)C(=O)N1 (stereo not shown) [[^18F]FE@SNAP]
Kd (human MCHR1): 2.9 nM | defluorination / uptake of ^18F-fluoride into the bone [1]: no defluorination | Ratio Hypothalamus/non-target (MCHR1 [2]; baseline (vehicle)): 2.14 ± 0.9 | Ratio Ventricle/non-target (MCHR1 [2]; baseline (vehicle)): 2.20 ± 0.4 | whole-brain uptake, blocking group versus baseline animals (MCHR1 [2]; blocking with 15 mg/kg SNAP-7941, n = 3 per group): significantly higher | Ratio Hypothalamus/non-target (MCHR1 [2]; [5]): 1.58 ± 0.5^a | Ratio Ventricle/non-target (MCHR1 [2]; [5]): 1.38 ± 0.2^a | Ki (MCHR2): > 1000 nM | tracer uptake in brain (small-animal PET) (MCHR1 [3]): high tracer uptake in the ventricular system | parent compound in the blood [4]: 51.50 ± 5.5%

From PMC4816952, “[^18F]FE@SNAP—a specific PET tracer for melanin-concentrating hormone receptor 1 imaging?” (EJNMMI Research, 2016)
